We go through 38 molecules from patent US11008323B2, “Substituted tricyclic 1,4-benzodiazepinone derivatives as allosteric modulators of group II metabotropic glutamate receptors” (Domain Therapeutics, priority 2015, dated 2021).

Bounds are passed on as bounds.

In general, EC50 refers to the concentration at which the effect is half-maximal. The low end stands for a more potent agent, the high end for a less potent agent.

The target of the experiment is T1, human mGluR3 (hmGluR3) (Homo sapiens, UniProt Q14832).
T1 construct: expressed in transfected cells; host or cells: HEK-293 cells, transient co-transfection by electroporation
T1 sequence (Q14832 23-879): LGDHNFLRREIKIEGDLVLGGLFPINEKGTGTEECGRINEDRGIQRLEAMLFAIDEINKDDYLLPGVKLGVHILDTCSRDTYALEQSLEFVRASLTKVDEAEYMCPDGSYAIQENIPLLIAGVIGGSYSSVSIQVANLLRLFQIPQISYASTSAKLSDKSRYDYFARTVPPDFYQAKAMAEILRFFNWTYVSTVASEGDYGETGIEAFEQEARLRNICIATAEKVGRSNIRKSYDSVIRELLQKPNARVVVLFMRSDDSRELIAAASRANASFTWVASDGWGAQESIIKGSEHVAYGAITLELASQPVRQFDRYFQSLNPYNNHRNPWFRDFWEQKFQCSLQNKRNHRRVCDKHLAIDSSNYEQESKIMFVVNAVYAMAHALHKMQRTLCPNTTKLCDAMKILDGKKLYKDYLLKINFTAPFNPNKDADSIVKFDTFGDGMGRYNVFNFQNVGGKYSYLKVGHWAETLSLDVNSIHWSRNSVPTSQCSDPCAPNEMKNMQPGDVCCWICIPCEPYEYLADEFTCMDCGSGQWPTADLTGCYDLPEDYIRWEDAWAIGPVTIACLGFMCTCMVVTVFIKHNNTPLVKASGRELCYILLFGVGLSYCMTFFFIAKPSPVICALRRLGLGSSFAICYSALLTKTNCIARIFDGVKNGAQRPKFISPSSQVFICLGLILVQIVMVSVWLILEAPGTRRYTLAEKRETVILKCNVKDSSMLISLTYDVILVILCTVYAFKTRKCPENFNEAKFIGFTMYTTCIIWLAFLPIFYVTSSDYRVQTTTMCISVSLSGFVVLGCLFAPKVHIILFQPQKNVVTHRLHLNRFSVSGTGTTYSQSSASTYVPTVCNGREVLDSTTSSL
Kind of experiment: Human mGluR3 positive allosteric modulator evaluation using Ca++ functional assay. In kind it is cell-based. The note with it: hmGluR3 transiently over-expressed in HEK-293 cells; stimulated by EC50 glutamate concentration; intracellular Ca2+ (Fluo4AM, FLIPR Tetra). The protocol:
Compounds of the present invention were tested successively for their agonist and positive allosteric modulator activities on human mGluR3 (hmGluR3) transiently over-expressed in HEK-293 cells. Compounds exert agonist activity if they are able to activate hmGluR3 by themselves, i.e., in absence of the endogenous agonist glutamate; and they exert positive allosteric modulator activity if they increase the action of the endogenous agonist glutamate.
HEK-293 cells were maintained in Modified Eagle's Medium supplemented with 10% Foetal Calf Serum, 1% Penicillin/Streptomycin and 1% non-essential amino acids at 37° C./5% CO2.
Cells were co-transfected by electroporation with four DNA plasmids encoding hmGluR3, a chimeric G protein allowing redirection of the activation signal toward intracellular calcium pathway, and two glutamate transporters so as to decrease extracellular glutamate levels and avoid receptor desensitization (Brabet I et al., Neuropharmacology 37(8), 1043-51, 1998). After transfection, cells were seeded in 75 cm^2 culture flasks, and cultured for 24 h.
Receptor activity was detected by changes in intracellular calcium measured using the fluorescent Ca^2+ sensitive dye, Fluo4AM (Molecular Probes).
The day of the assay, medium was aspirated and replaced during 3 hrs by freshly prepared buffer B (HBSS 1×, Hepes 20 mM, MgSO4-7H2O 1 mM, Na2CO3 3.3 mM, CaCl2-2H2O 1.3 mM, 0.5% BSA, Probenecid 2.5 mM). Then, cells were loaded at 37° C./5% CO2 for 1.5 hrs with buffer B containing 1 μM Fluo4AM, 0.1 mg/mL Pluronic Acid, 7 μg/mL Glutamate Pyruvate Transaminase and 2 mM sodium pyruvate. Afterwards cells were washed with buffer B. Cells were then detached from the 75 cm^2 culture flasks with Accutase® (5 min incubation at 37° C.), centrifuged (5 min at 840 rpm), resuspended in buffer B and finally seeded at a density of 30,000 cells/well in black-walled clear-bottom 384-well plates. Addition of compounds on cells and intracellular Ca^2+ measurements (excitation 485 nm, emission 525 nm) were performed by the fluorescence microplate reader FLIPR Tetra (Molecular Devices).
Agonist and positive allosteric modulator activities of compounds were consecutively evaluated on the same cells plate. Agonist activity was first tested during 10 min with the addition of compound alone on the cells. Then, the cells were stimulated by an EC50 glutamate concentration and fluorescence was recorded for additional 3 min. EC50 glutamate concentration is the concentration giving 50% of the maximal glutamate response. Agonist and/or positive allosteric modulator activity(ies) were evaluated in comparison to basal signal or signal evoked by EC50 glutamate concentration alone, respectively.
For potency determination, a dose-response test was performed using 20 concentrations of each compound of the invention. Dose-response curves were fitted using the sigmoïdal dose-response (variable slope) analysis in XLfit Scientific Curve Fitting for Excel (IDBS). EC50 of agonist/EC50 of positive allosteric modulator activity(ies) were calculated. Dose-response experiments were all performed in duplicate, two times independently.
`CN(C)c1ccc(-c2ccc3c(c2)-n2cc(-c4ccccc4)cc2C(=O)N(C)C32CC2)cn1` [Example 114, 5-Methyl-2-phenyl-9-(6-dimethylamino-pyridin-3-yl)-spiro[benzo[f]pyrrolo[1,2-a][1,4]diazepine-6,1′-cyclopropan]-4(5H)-one]: the EC50 is less than 100 nM.

In the case of `CN(C)c1ccc2c(c1)-n1cc(-c3ccccc3)cc1C(=O)N(C)C21CC1` [Example 115, 9-Dimethylamino-5-methyl-2-phenyl-spiro[benzo[f]pyrrolo[1,2-a][1,4]diazepine-6,1′-cyclopropan]-4(5H)-one], the EC50 was greater than 1000 nM. With `CNc1ccc(-c2ccc3c(c2)-n2cc(-c4ccccc4)cc2C(=O)N(C)C32CC2)cn1` [Example 118, 5-Methyl-2-phenyl-9-(6-methylamino-pyridin-3-yl)-spiro[benzo[f]pyrrolo[1,2-a][1,4]diazepine-6,1′-cyclopropan]-4(5H)-one], the EC50 was less than 100 nM.

Regarding `CN(C)c1ncccc1-c1ccc2c(c1)-n1cc(-c3ccccc3)cc1C(=O)N(C)C21CC1` [Example 119, 5-Methyl-2-phenyl-9-(2-dimethylamino-pyridin-3-yl)-spiro[benzo[f]pyrrolo[1,2-a][1,4]diazepine-6,1′-cyclopropan]-4(5H)-one], the EC50 is greater than 1000 nM. In the case of `Cc1cc(-c2ccc3c(c2)-n2nc(-c4ccccc4)cc2C(=O)N(C)C32CC2)cc(C)n1` [Example 121, 9-(2,6-Dimethyl-pyridin-4-yl)-5-methyl-2-phenyl-spiro[benzo[f]pyrazolo[1,5-a][1,4]diazepine-6,1′-cyclopropan]-4(5H)-one] it was 100 to 1000 nM; in that of `Cc1cc(-c2ccc3c(c2)-n2nc(-c4ccccc4)cc2C(=O)N(C)C32CC2)ccn1` [Example 122, 9-(2-Methyl-pyridin-4-yl)-5-methyl-2-phenyl-spiro[benzo[f]pyrazolo[1,5-a][1,4]diazepine-6,1′-cyclopropan]-4(5H)-one], 100 to 1000 nM; in that of `Cc1ncccc1-c1ccc2c(c1)-n1nc(-c3ccccc3)cc1C(=O)N(C)C21CC1` [Example 125, 9-(2-Methyl-pyridin-3-yl)-5-methyl-2-phenyl-spiro[benzo[f]pyrazolo[1,5-a][1,4]diazepine-6,1′-cyclopropan]-4(5H)-one], less than 100 nM. Molecule `Cc1ccc(-c2ccc3c(c2)-n2nc(-c4ccccc4)cc2C(=O)N(C)C32CC2)c(C)n1` [Example 126, 9-(2,6-Dimethyl-pyridin-3-yl)-5-methyl-2-phenyl-spiro[benzo[f]pyrazolo[1,5-a][1,4]diazepine-6,1′-cyclopropan]-4(5H)-one] registered an EC50 of less than 100 nM.

Regarding `CN1C(=O)c2cc(-c3ccccc3)nn2-c2cc(-c3ccc(N)nc3)ccc2C12CC2` [Example 127, 9-(6-Amino-pyridin-3-yl)-5-methyl-2-phenyl-spiro[benzo[f]pyrazolo[1,5-a][1,4]diazepine-6,1′-cyclopropan]-4(5H)-one], the concentration for a half-maximal effect (EC50) was less than 100 nM. `CN1C(=O)c2cc(-c3ccccc3)nn2-c2cc(-c3cccc(Cl)c3)ccc2C12CC2` [Example 130, 9-(3-Chloro-phenyl)-5-methyl-2-phenyl-spiro[benzo[f]pyrazolo[1,5-a][1,4]diazepine-6,1′-cyclopropan]-4(5H)-one] returned a concentration for a half-maximal effect (EC50) of 100 to 1000 nM. Then `CN1C(=O)c2cc(-c3ccccc3)nn2-c2cc(-c3ccccc3Cl)ccc2C12CC2` [Example 131, 9-(2-Chloro-phenyl)-5-methyl-2-phenyl-spiro[benzo[f]pyrazolo[1,5-a][1,4]diazepine-6,1′-cyclopropan]-4(5H)-one], with greater than 1000 nM; and `CN1C(=O)c2cc(-c3ccccc3)nn2-c2cc(-c3ccc(Cl)cc3)ccc2C12CC2` [Example 135, 9-(4-Chloro-phenyl)-5-methyl-2-phenyl-spiro[benzo[f]pyrazolo[1,5-a][1,4]diazepine-6,1′-cyclopropan]-4(5H)-one], with greater than 1000 nM; and `Cc1ncccc1-c1ccc2c(c1)-n1cc(-c3ccccc3)nc1C(=O)N(C)C21CC1` [Example 140, 9-(2-Methyl-pyridin-3-yl)-5-methyl-2-phenyl-spiro[benzo[f]imidazo[1,2-a][1,4]diazepine-6,1′-cyclopropan]-4(5H)-one], with less than 100 nM. In the case of `Cc1ncccc1-c1ccc2c(c1)-n1cc(-c3cccnc3)cc1C(=O)N(C)C21CC1` [Example 143], the EC50 is less than 100 nM. For the molecule `Cc1cc2n(c1)-c1cc(-c3cccnc3C)ccc1C1(CC1)N(C)C2=O` [Example 144], the EC50 was less than 100 nM. Consider `Cc1ncccc1-c1ccc2c(c1)-n1cc(-c3ccncc3)cc1C(=O)N(C)C21CC1` [Example 145], for which the half-maximal effective concentration (EC50) was less than 100 nM. For the molecule `Cc1ncccc1-c1ccc2c(c1)-n1cc(-c3cc[nH]n3)cc1C(=O)N(C)C21CC1` [Example 146], the EC50 is less than 100 nM. Then `Cc1ncccc1-c1ccc2c(c1)-n1cc(-c3ccccc3Cl)cc1C(=O)N(C)C21CC1` [Example 147], with 100 to 1000 nM; and `Cc1ncccc1-c1ccc2c(c1)-n1cc(-c3cccc(Cl)c3)cc1C(=O)N(C)C21CC1` [Example 148], with 100 to 1000 nM. In the case of `Cc1ncccc1-c1ccc2c(c1)-n1cc(-c3ccc(Cl)cc3)cc1C(=O)N(C)C21CC1` [Example 149] it was 100 to 1000 nM; in that of `Cc1ncccc1-c1ccc2c(c1)-n1cc(-c3ccc(F)cc3)cc1C(=O)N(C)C21CC1` [Example 150], 100 to 1000 nM. Regarding `Cc1ncccc1-c1ccc2c(c1)-n1cc(-c3ccccc3F)cc1C(=O)N(C)C21CC1` [Example 151], the concentration for a half-maximal effect (EC50) was less than 100 nM.

With `Cc1ncccc1-c1ccc2c(c1)-n1cc(-c3cccc(F)c3)cc1C(=O)N(C)C21CC1` [Example 152], the EC50 is less than 100 nM. In turn, `Cc1ncccc1-c1ccc2c(c1)-n1cc(N(C)C)cc1C(=O)N(C)C21CC1` [Example 154] registered a 50% effective concentration (EC50) of 100 to 1000 nM.

The molecule `Cc1ncccc1-c1ccc2c(c1)-n1cc(C3CC3)cc1C(=O)N(C)C21CC1` [Example 155] registered a 50% effective concentration (EC50) of less than 100 nM.

`Cc1ncccc1-c1ccc2c(c1)-n1cc(C3CCCC3)cc1C(=O)N(C)C21CC1` [Example 156] registered an EC50 of 100 to 1000 nM. Regarding `Cc1ncccc1-c1ccc2c(c1)-n1cc(-c3nccs3)cc1C(=O)N(C)C21CC1` [Example 157], the concentration for a half-maximal effect (EC50) was less than 100 nM. `Cc1ccc(-c2ccc3c(c2)-n2cc(-c4nccs4)cc2C(=O)N(C)C32CC2)cn1` [Example 158] had an EC50 of less than 100 nM. For `Cc1ccc(-c2ccc3c(c2)-n2cc(-c4ccnn4C)cc2C(=O)N(C)C32CC2)cn1` [Example 159], the EC50 is less than 100 nM.

`Cc1ncccc1-c1ccc2c(c1)-n1cc(-c3ccnn3C)cc1C(=O)N(C)C21CC1` [Example 160] registered an EC50 of less than 100 nM. In turn, `CCc1ncccc1-c1ccc2c(c1)-n1cc(-c3ccccc3F)cc1C(=O)N(C)C21CC1` [Example 162] gave an EC50 of less than 100 nM. In the case of `CCc1ncccc1-c1ccc2c(c1)-n1cc(-c3ccnn3C)cc1C(=O)N(C)C21CC1` [Example 163] it was less than 100 nM; in that of `CN1Cc2ccc(-c3ccc(N)nc3)cc2-n2cc(-c3ccccc3)cc2C1=O` [Example 165, 9-(6-Amino-pyridin-3-yl)-5-methyl-2-phenyl-5,6-dihydro-benzo[f]pyrrolo[1,2-a][1,4]diazepin-4-one], 100 to 1000 nM; in that of `Cc1ncccc1-c1ccc2c(c1)-n1cc(-c3ccccc3)nc1C(=O)N(C)C2` [Example 166, 5-Methyl-9-(2-methylpyridin-3-yl)-2-phenyl-5,6-dihydro-4H-benzo[f]imidazo[1,2-a][1,4]diazepin-4-one], 100 to 1000 nM. Then `CCN1Cc2ccc(-c3cccnc3C)cc2-n2cc(-c3ccccc3)nc2C1=O` [Example 167, 5-Ethyl-9-(2-methylpyridin-3-yl)-2-phenyl-5,6-dihydro-4H-benzo[f]imidazo[1,2-a][1,4]diazepin-4-one], with greater than 1000 nM; and `Cc1ncccc1-c1ccc2c(c1)-n1cc(-c3cnco3)cc1C(=O)N(C)C21CC1` [Example 182], with less than 100 nM. As to `Cc1ncccc1-c1ccc2c(c1)-n1cc(-c3cnc[nH]3)cc1C(=O)N(C)C21CC1` [Example 183], the EC50 was less than 100 nM. `Cc1ncccc1-c1ccc2c(c1)-n1cc(-c3ncc[nH]3)cc1C(=O)N(C)C21CC1` [Example 184] came in with an EC50 of less than 100 nM.
